From PubChem BioAssay (NCI)
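Protocol summary: plate cells (96-well), add compound at 5 concentrations, incubate 48 h, interpolate endpoints linearly. TGI: total growth inhibition.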

Columns and labels:
Experiment in all cases: NCI anticancer screen, dose series, 48 h
OVCAR-4 ovarian = system: OVCAR-4 ovarian
ACHN renal = system: ACHN renal
HT29 colon = system: HT29 colon
COLO 205 colon = system: COLO 205 colon
T-47D breast = system: T-47D breast
SNB-19 CNS = system: SNB-19 CNS
MCF7 breast = system: MCF7 breast
KM12 colon = system: KM12 colon
SF-539 CNS = system: SF-539 CNS
SF-268 CNS = system: SF-268 CNS
RXF 393 renal = system: RXF 393 renal
K-562 leukemia = system: K-562 leukemia
BT-549 breast = system: BT-549 breast
NCI-H23 lung = system: NCI-H23 lung
OVCAR-8 ovarian = system: OVCAR-8 ovarian
SK-OV-3 ovarian = system: SK-OV-3 ovarian
NCI-H522 lung = system: NCI-H522 lung
MDA-MB-231 breast = system: MDA-MB-231 breast
MDA-N = system: MDA-N
A498 renal = system: A498 renal
NCI-H226 lung = system: NCI-H226 lung
SK-MEL-5 melanoma = system: SK-MEL-5 melanoma
UO-31 renal = system: UO-31 renal
OVCAR-3 ovarian = system: OVCAR-3 ovarian
RPMI-8226 leukemia = system: RPMI-8226 leukemia
SK-MEL-28 melanoma = system: SK-MEL-28 melanoma
IGROV1 ovarian = system: IGROV1 ovarian
UACC-62 melanoma = system: UACC-62 melanoma
U251 CNS = system: U251 CNS
MOLT-4 leukemia = system: MOLT-4 leukemia
SK-MEL-2 melanoma = system: SK-MEL-2 melanoma
HCT-116 colon = system: HCT-116 colon
UACC-257 melanoma = system: UACC-257 melanoma
HOP-62 NSCLC = system: HOP-62 NSCLC
CAKI-1 renal = system: CAKI-1 renal
HCT-15 colon = system: HCT-15 colon
LOX IMVI melanoma = system: LOX IMVI melanoma
HOP-92 NSCLC = system: HOP-92 NSCLC
M14 melanoma = system: M14 melanoma
NCI-H460 lung = system: NCI-H460 lung
TK-10 renal = system: TK-10 renal
PC-3 prostate = system: PC-3 prostate
SN12C renal = system: SN12C renal
MDA-MB-435 = system: MDA-MB-435
DU-145 prostate = system: DU-145 prostate
MALME-3M melanoma = system: MALME-3M melanoma
SW-620 colon = system: SW-620 colon
A549 NSCLC = system: A549 NSCLC
NCI/ADR-RES ovarian = system: NCI/ADR-RES ovarian
HS 578T breast = system: HS 578T breast
CCRF-CEM leukemia = system: CCRF-CEM leukemia
SR leukemia = system: SR leukemia
786-0 renal = system: 786-0 renal
SF-295 CNS = system: SF-295 CNS
OVCAR-5 ovarian = system: OVCAR-5 ovarian
SNB-75 CNS = system: SNB-75 CNS
HL-60(TB) leukemia = system: HL-60(TB) leukemia
HCC-2998 colon = system: HCC-2998 colon
EKVX NSCLC = system: EKVX NSCLC

For `CC(C)(C)/C(=N\Nc1nc2ccccc2[nH]1)c1ccccn1`, the TGI (OVCAR-4 ovarian) was > 100 µM, the TGI (ACHN renal) was > 100 µM and the TGI (HT29 colon) was > 100 µM. For the same molecule, the TGI (COLO 205 colon) was > 100 µM, the TGI (T-47D breast) was > 100 µM and the TGI (SNB-19 CNS) was > 100 µM. The TGI (MCF7 breast) was 67.2 µM, the TGI (KM12 colon) was > 100 µM and the TGI (SF-539 CNS) was > 100 µM. The TGI (SF-268 CNS) was > 100 µM, the TGI (RXF 393 renal) was > 100 µM and the TGI (K-562 leukemia) was > 100 µM. The TGI (BT-549 breast) was > 100 µM, the TGI (NCI-H23 lung) was > 100 µM and the TGI (OVCAR-8 ovarian) was > 100 µM. The TGI (SK-OV-3 ovarian) was > 100 µM, the TGI (NCI-H522 lung) was > 100 µM and the TGI (MDA-MB-231 breast) was > 100 µM. The TGI (MDA-N) was > 100 µM, the TGI (A498 renal) was > 100 µM and the TGI (NCI-H226 lung) was > 100 µM. The TGI (SK-MEL-5 melanoma) was > 100 µM, the TGI (UO-31 renal) was > 100 µM and the TGI (OVCAR-3 ovarian) was 73.3 µM. The TGI (RPMI-8226 leukemia) was 35.4 µM, the TGI (SK-MEL-28 melanoma) was > 100 µM and the TGI (IGROV1 ovarian) was > 100 µM. For the same molecule, the TGI (UACC-62 melanoma) was > 100 µM, the TGI (U251 CNS) was > 100 µM and the TGI (MOLT-4 leukemia) was > 100 µM. For the same molecule, the TGI (SK-MEL-2 melanoma) was > 100 µM, the TGI (HCT-116 colon) was 78 µM and the TGI (UACC-257 melanoma) was > 100 µM. For the same molecule, the TGI (HOP-62 NSCLC) was > 100 µM, the TGI (CAKI-1 renal) was > 100 µM and the TGI (HCT-15 colon) was > 100 µM. For the same molecule, the TGI (LOX IMVI melanoma) was > 100 µM, the TGI (HOP-92 NSCLC) was > 100 µM and the TGI (M14 melanoma) was > 100 µM. The TGI (NCI-H460 lung) was > 100 µM, the TGI (TK-10 renal) was 67.8 µM and the TGI (PC-3 prostate) was > 100 µM. For the same molecule, the TGI (SN12C renal) was > 100 µM, the TGI (MDA-MB-435) was > 100 µM and the TGI (DU-145 prostate) was > 100 µM. The TGI (MALME-3M melanoma) was 61.5 µM, the TGI (SW-620 colon) was > 100 µM and the TGI (A549 NSCLC) was > 100 µM. The TGI (NCI/ADR-RES ovarian) was > 100 µM, the TGI (HS 578T breast) was > 100 µM and the TGI (CCRF-CEM leukemia) was > 100 µM. The TGI (SR leukemia) was > 100 µM and the TGI (786-0 renal) was > 100 µM.
With `O=S(=O)(SC1=NCCN1)c1ccc2ccccc2c1` the TGI (OVCAR-4 ovarian) was > 100 µM, the TGI (ACHN renal) was > 100 µM and the TGI (HT29 colon) was 40 µM. The TGI (COLO 205 colon) was 37.7 µM, the TGI (T-47D breast) was > 100 µM and the TGI (SNB-19 CNS) was 39.1 µM. For the same molecule, the TGI (MCF7 breast) was > 100 µM, the TGI (KM12 colon) was 44.1 µM and the TGI (SF-539 CNS) was 63.7 µM. The TGI (SF-268 CNS) was 52.5 µM, the TGI (RXF 393 renal) was > 100 µM and the TGI (K-562 leukemia) was 55 µM. For the same molecule, the TGI (BT-549 breast) was 83.9 µM, the TGI (NCI-H23 lung) was 61.8 µM and the TGI (OVCAR-8 ovarian) was 40.5 µM. It also gave a TGI (SK-OV-3 ovarian) of 54.7 µM, a TGI (NCI-H522 lung) of 46.3 µM and a TGI (MDA-MB-231 breast) of 42.9 µM. The TGI (MDA-N) was 43.9 µM, the TGI (A498 renal) was > 100 µM and the TGI (NCI-H226 lung) was 98 µM. The TGI (SK-MEL-5 melanoma) was 64.5 µM, the TGI (UO-31 renal) was > 100 µM and the TGI (OVCAR-3 ovarian) was 97.2 µM. For the same molecule, the TGI (SF-295 CNS) was 65.8 µM, the TGI (RPMI-8226 leukemia) was 64 µM and the TGI (OVCAR-5 ovarian) was 49.6 µM. For the same molecule, the TGI (SK-MEL-28 melanoma) was > 100 µM, the TGI (SNB-75 CNS) was 68 µM and the TGI (IGROV1 ovarian) was > 100 µM. The TGI (UACC-62 melanoma) was > 100 µM, the TGI (U251 CNS) was 54.1 µM and the TGI (MOLT-4 leukemia) was 56.8 µM. It also gave a TGI (SK-MEL-2 melanoma) of 80 µM, a TGI (HCT-116 colon) of 62.4 µM and a TGI (HL-60(TB) leukemia) of 38.4 µM. The TGI (UACC-257 melanoma) was > 100 µM, the TGI (HOP-62 NSCLC) was 69.5 µM and the TGI (CAKI-1 renal) was > 100 µM. For the same molecule, the TGI (HCT-15 colon) was 71 µM, the TGI (LOX IMVI melanoma) was > 100 µM and the TGI (HOP-92 NSCLC) was > 100 µM. It also gave a TGI (M14 melanoma) of 63.6 µM, a TGI (HCC-2998 colon) of 38.7 µM and a TGI (NCI-H460 lung) of 42.8 µM. The TGI (TK-10 renal) was > 100 µM, the TGI (PC-3 prostate) was > 100 µM and the TGI (SN12C renal) was 68.9 µM. The TGI (MDA-MB-435) was 42.8 µM, the TGI (EKVX NSCLC) was > 100 µM and the TGI (DU-145 prostate) was > 100 µM. The TGI (MALME-3M melanoma) was > 100 µM, the TGI (SW-620 colon) was 43.6 µM and the TGI (A549 NSCLC) was 86.3 µM. The TGI (NCI/ADR-RES ovarian) was 51.8 µM, the TGI (HS 578T breast) was > 100 µM and the TGI (CCRF-CEM leukemia) was 68 µM. For the same molecule, the TGI (786-0 renal) was 97.1 µM.
`COC(=O)C1=C(O)C(C(=O)OC)[C@]2(O)[C@H](C(=O)OC)[C@H]1C[C@@H](c1ccc(Cl)cc1)[C@H]2C(=O)OC` (some centres undefined) was tested, and the TGI (OVCAR-4 ovarian) was > 100 µM, the TGI (ACHN renal) was 39.9 µM and the TGI (HT29 colon) was 32 µM. For the same molecule, the TGI (COLO 205 colon) was 25.1 µM, the TGI (T-47D breast) was > 100 µM and the TGI (SNB-19 CNS) was 29.8 µM. For the same molecule, the TGI (MCF7 breast) was 24.1 µM, the TGI (KM12 colon) was 46.6 µM and the TGI (SF-539 CNS) was 20.9 µM. The TGI (SF-268 CNS) was 29 µM, the TGI (RXF 393 renal) was 19.1 µM and the TGI (K-562 leukemia) was > 100 µM. For the same molecule, the TGI (BT-549 breast) was 38.9 µM, the TGI (NCI-H23 lung) was 22.9 µM and the TGI (OVCAR-8 ovarian) was > 100 µM. It also gave a TGI (SK-OV-3 ovarian) of 23.4 µM, a TGI (MDA-MB-231 breast) of 37.6 µM and a TGI (MDA-N) of 22.5 µM. For the same molecule, the TGI (A498 renal) was 27.2 µM, the TGI (NCI-H226 lung) was 38.2 µM and the TGI (SK-MEL-5 melanoma) was 20.5 µM. For the same molecule, the TGI (UO-31 renal) was 21.4 µM, the TGI (OVCAR-3 ovarian) was 13.4 µM and the TGI (SF-295 CNS) was 20.6 µM. For the same molecule, the TGI (RPMI-8226 leukemia) was > 100 µM, the TGI (OVCAR-5 ovarian) was 40.3 µM and the TGI (SK-MEL-28 melanoma) was 21.4 µM. The TGI (SNB-75 CNS) was 38.7 µM, the TGI (IGROV1 ovarian) was > 100 µM and the TGI (UACC-62 melanoma) was 24.9 µM. For the same molecule, the TGI (U251 CNS) was 20.9 µM, the TGI (MOLT-4 leukemia) was > 100 µM and the TGI (SK-MEL-2 melanoma) was 6.51 µM. It also gave a TGI (HCT-116 colon) of 17.3 µM, a TGI (HL-60(TB) leukemia) of 12.9 µM and a TGI (UACC-257 melanoma) of 26.5 µM. The TGI (HOP-62 NSCLC) was 24 µM, the TGI (CAKI-1 renal) was > 100 µM and the TGI (HCT-15 colon) was 47.7 µM. The TGI (LOX IMVI melanoma) was 30.1 µM, the TGI (HOP-92 NSCLC) was 73.6 µM and the TGI (M14 melanoma) was 19.5 µM. The TGI (HCC-2998 colon) was 22 µM, the TGI (NCI-H460 lung) was 49.4 µM and the TGI (TK-10 renal) was 33.5 µM. The TGI (PC-3 prostate) was 18.8 µM, the TGI (SN12C renal) was 79.6 µM and the TGI (MDA-MB-435) was 25.4 µM. It also gave a TGI (EKVX NSCLC) of 30.6 µM, a TGI (DU-145 prostate) of 30.4 µM and a TGI (MALME-3M melanoma) of 25.1 µM. For the same molecule, the TGI (SW-620 colon) was > 100 µM, the TGI (A549 NSCLC) was 89.5 µM and the TGI (NCI/ADR-RES ovarian) was > 100 µM. The TGI (HS 578T breast) was 30.2 µM, the TGI (CCRF-CEM leukemia) was > 100 µM and the TGI (SR leukemia) was > 100 µM. For the same molecule, the TGI (786-0 renal) was 23.9 µM.
